Measured values from US20240217946A1, “ANTIDEPRESSANT AND ANXIOLYTIC SUBSTITUTED CINNAMAMIDE COMPOUND” (TASLY PHARMACEUTICAL GROUP CO., LTD., priority 2021, published 2024).
“And” between values parts separate entries of the source, which are not always exact repeats. Equal entries are not always repeated. Where two headings read alike, the source gives them in different places.

Experiments:
[1] = Pharmacokinetics and absolute bioavailability in rats (LC-MS/MS); assay type: in vivo; conditions: rat; for MRT inf: read-out: MRT0-∞
Description: A LC-MS/MS method for determination of compound I-5 and compound M2 in rat plasma was established through experiments to investigate the pharmacokinetic characteristics and absolute bioavailability of compounds in rats.
20 SPF-grade SD male rats (body weight 220±20 g), purchased from Beijing Vital River Laboratory Animal Technology Co., Ltd.
• Chromatographic column: waters BEH C18 1.7 μm; 2.1×100 mm Column • Internal standard: D-I-5 (deuterated compound I-5, with the following structural formula)
20 SD rats were randomly divided into 4 groups, with 5 rats in each group. […]
50 μL plasma was taken, 50 μL D-I-5 (20 ng/mL dissolved in acetonitrile) was added, the mixture was whirled for 30 s, then 100 μL acetonitrile was added; the mixture was fully whirled for 2 min, and was centrifuged at 4° C. at 12000 r/min for 3 min, 50 μL supernatant was taken, 50 μL aqueous solution was added for dilution, followed by whirling for Imin, and 4 μL sample was injected.
The mean plasma concentration-time curves of rats after oral intragastric administration and intravenous administration were respectively shown in FIGS. 8 and 9. Data were processed using DAS 3.0 pharmacokinetic software (Chinese Professional Committee of Mathematical Pharmacology, Shanghai, China), and statistical moment parameters of the non-compartmental model were calculated, Cmax and Tmax being measured values.

ICR mice = experiment: Elevated plus maze experiment in mice, single administration; assay type: in vivo
Protocol: 50 male ICR mice were randomly divided into 5 groups (a solvent control group, estazolam group, M2 high dosage group, M2 medium dosage group, M2 low dosage group), with 10 mice in each group. The compound M2 high, medium and low dosage groups were intragastrically administered at 20 mg/kg. 10 mg/kg and 5 mg/kg, respectively; the positive drug estazolam was intragastrically administered at 2.5 mg/kg; and the solvent control group was gavaged with an equal volume of solvent. Behavior test was performed in each group 30 min after single administration. The experiments were required to be conducted between 8:00 am and […], and all animals entered the test laboratory on the previous day.
The laboratory was dimly lit (with the lowest brightness that can distinguish the subtle activities of mice at a distance of 1.5 m) and the brightness was kept constant, with a room temperature of about 20° C., and kept quiet. Before the maze test, each mouse was placed in a 35 cm*10 cm*5 cm plastic box and left to explore freely for 5 min and then quickly placed at the central platform of an elevated plus maze, with its head facing one of the open arms, and the following indexes were recorded upon release. Each mouse was tested for 5 min. Observers observed and recorded animal activities at a distance of 1.5 m. At intervals, the maze was wiped with a wet cloth to remove feces, and then wiped with a dry cloth before a next mouse was tested.
• (1) The number of open arm entries (OE): the number of entries into any open arm, based on the fact that all four claws of the mouse entered the arm, and a complete exit of one claw from the arm indicated the completion of the entry activity; • (2) open arm time (OT): the time of entering an open arm, with the unit of seconds; • (3) the number of close arm entries (CE): the number of entries into any close arm, based on the fact that all four claws of the mouse entered the arm; • (4) close arm time (CT): the time of entering a close arm, with the unit of seconds; • (5) percentage of open arm time: OT %=OT/(OT+CT)*100%; and • (6) percentage of open arm entries: OE %=OE/(OE+CE)*100%.
70 male ICR mice were randomly divided into 7 groups (a solvent control group, estazolam group, compound M2 group, compound II-3 group, compound II-4 group, compound II-5 group, and compound II-10 group), with 10 mice in each group. The dosage of M2 and its four structurally similar compounds was determined as 20 mg/kg according to the experimental results of 3.1: the positive drug estazolam was administered intragastrically at 2.5 mg/kg; and the solvent control group was gavaged with an equal volume of solvent. Behavior test was performed in each group 30 min after single administration. The experiments were required to be conducted between 8:00 am and […], and all animals entered the test laboratory on the previous day.
The behavioral test method and behavioral observation indexes were the same as those in 3.1.
Data was expressed as mean±standard (mean±SD) difference, and statistics of data differences were made by one-way analysis of variance (ANOVA) or nonparametric test, and differences between groups were determined by P<0.05.

[2] = male, SD, plasma, po, intragastric administration 12.5 mg/kg, n = 5
[3] = male, SD, plasma, intravenous administration 2.5 mg/kg, n = 5
[4] = male, Sprague-Dawley (SD), plasma, po, intragastric administration 12.5 mg/kg, n = 5
[5] = male, Sprague-Dawley (SD), plasma, intravenous administration 2.5 mg/kg, n = 5
[6] = comparative study (Table 13), 20 mg/kg i.g., 30 min after single administration

CC(C)CNC(=O)/C=C/c1cc2c(c(C(F)(F)F)c1)OCO2 [Compound I-5]
bioavailability ([1]; male, SD, plasma, oral, absolute bioavailability, intragastric 12.5 mg/kg vs intravenous 2.5 mg/kg, read-out: F (bioavailability, %)): 24.1% | AUC(0-t) [1, 2]: 523 ± 433 ng·h/mL | Tmax [1, 2]: 21 min | half-life [1, 2]: 55.8 ± 22.8 min | C0 [1, 3]: 2050 ± 907 ng/mL | half-life [1, 3]: 39.6 ± 4.2 min | concentration at 0.08 h ([1]; male, SD, plasma, iv, 2.5 mg/kg, single intravenous 2.5 mg/kg, 0.08 h, read-out: Plasma concentration, Mean): 1150 ng/mL | concentration at 0.25 h ([1]; male, SD, plasma, iv, 2.5 mg/kg, single intravenous 2.5 mg/kg, 0.25 h, read-out: Plasma concentration, Mean): 393 ng/mL | concentration at 0.5 h ([1]; male, SD, plasma, iv, 2.5 mg/kg, single intravenous 2.5 mg/kg, 0.50 h): 152 ng/mL | concentration at 1 h ([1]; male, SD, plasma, iv, 2.5 mg/kg, single intravenous 2.5 mg/kg, 1 h, read-out: Plasma concentration, Mean): 60.3 ng/mL | concentration at 2 h ([1]; male, SD, plasma, iv, 2.5 mg/kg, single intravenous 2.5 mg/kg, 2 h): 16.8 ng/mL | concentration at 3 h ([1]; male, SD, plasma, iv, 2.5 mg/kg, single intravenous 2.5 mg/kg, 3 h): 6.9 ng/mL | concentration at 4 h ([1]; male, SD, plasma, iv, 2.5 mg/kg, single intravenous 2.5 mg/kg, 4 h, read-out: Plasma concentration, Mean): 3 ng/mL | concentration at 4 h ([1]; male, SD, plasma, iv, 2.5 mg/kg, single intravenous 2.5 mg/kg, 4 h, read-out: Plasma concentration, individual rats): 3.01 ng/mL | concentration at 0.08 h ([1]; male, SD, plasma, oral, 12.5 mg/kg, single intragastric 12.5 mg/kg, 0.08 h, read-out: Plasma concentration, Mean): 118 ng/mL | concentration at 0.25 h ([1]; male, SD, plasma, oral, 12.5 mg/kg, single intragastric 12.5 mg/kg, 0.25 h, read-out: Plasma concentration, Mean): 367 ng/mL | concentration at 0.5 h ([1]; male, SD, plasma, oral, 12.5 mg/kg, single intragastric 12.5 mg/kg, 0.50 h): 334 ng/mL | concentration at 1 h ([1]; male, SD, plasma, oral, 12.5 mg/kg, single intragastric 12.5 mg/kg, 1 h, read-out: Plasma concentration, Mean): 266 ng/mL | concentration at 2 h ([1]; male, SD, plasma, oral, 12.5 mg/kg, single intragastric 12.5 mg/kg, 2 h): 109 ng/mL | concentration at 3 h ([1]; male, SD, plasma, oral, 12.5 mg/kg, single intragastric 12.5 mg/kg, 3 h): 44.4 ng/mL | concentration at 4 h ([1]; male, SD, plasma, oral, 12.5 mg/kg, single intragastric 12.5 mg/kg, 4 h, read-out: Plasma concentration, Mean): 15.3 ng/mL | concentration at 6 h ([1]; male, SD, plasma, oral, 12.5 mg/kg, single intragastric 12.5 mg/kg, 6 h): 6.6 ng/mL | Cmax ([1]; male, SD, plasma, po, 12.5 mg/kg, intragastric administration 12.5 mg/kg, n = 5, read-out: Cmax): 361 ± 258 ng/mL | AUC(0-inf) [1, 4]: 659 ± 371 ng·h/mL | MRT inf [1, 4]: 69.6 ± 7.2 min | AUC(0-inf) [1, 5]: 438 ± 139 ng·h/mL | AUC(0-t) [1, 5]: 436 ± 138 ng·h/mL | MRT inf [1, 5]: 22.2 ± 6.6 min | Plasma concentration, individual rats ([1]; single intragastric 12.5 mg/kg, 0.08 h): 140 ng/mL and 3.59 ng/mL and 70.1 ng/mL and 214 ng/mL and 164 ng/mL | Plasma concentration, individual rats ([1]; single intragastric 12.5 mg/kg, 0.25 h): 706 ng/mL and 7.11 ng/mL and 371 ng/mL and 389 ng/mL and 361 ng/mL | Plasma concentration, individual rats ([1]; single intragastric 12.5 mg/kg, 0.50 h): 735 ng/mL and 4.71 ng/mL and 416 ng/mL and 268 ng/mL and 246 ng/mL | Plasma concentration, individual rats ([1]; single intragastric 12.5 mg/kg, 1 h): 450 ng/mL and BQL and 391 ng/mL and 92.3 ng/mL and 132 ng/mL | Plasma concentration, individual rats ([1]; single intragastric 12.5 mg/kg, 2 h): 224 ng/mL and BQL and 134 ng/mL and 35.8 ng/mL and 43.0 ng/mL | Plasma concentration, individual rats ([1]; single intragastric 12.5 mg/kg, 3 h): 84.5 ng/mL and BQL and 58.4 ng/mL and 11.3 ng/mL and 23.6 ng/mL | Plasma concentration, individual rats ([1]; single intragastric 12.5 mg/kg, 4 h): 27.3 ng/mL and BQL and 17.3 ng/mL and 10.7 ng/mL and 6.16 ng/mL | Plasma concentration, individual rats ([1]; single intragastric 12.5 mg/kg, 6 h): 5.64 ng/mL and BQL and 3.20 ng/mL and 5.66 ng/mL and 12.2 ng/mL | Plasma concentration, individual rats ([1]; single intragastric 12.5 mg/kg, 8 h): BOL and BQL (4×) | Plasma concentration, individual rats ([1]; single intravenous 2.5 mg/kg, 0.08 h, 2.5 mg/kg): 1750 ng/mL and 1150 ng/mL and 659 ng/mL and 865 ng/mL and 1350 ng/mL | Plasma concentration, individual rats ([1]; single intravenous 2.5 mg/kg, 0.25 h, 2.5 mg/kg): 628 ng/mL and 247 ng/mL and 540 ng/mL and 260 ng/mL and 291 ng/mL | Plasma concentration, individual rats ([1]; single intravenous 2.5 mg/kg, 0.50 h, 2.5 mg/kg): 243 ng/mL and 75.7 ng/mL and 225 ng/mL and 95.9 ng/mL and 120 ng/mL | Plasma concentration, individual rats ([1]; single intravenous 2.5 mg/kg, 1 h, 2.5 mg/kg): 103 ng/mL and 24.9 ng/mL and 80.2 ng/mL and 52.0 ng/mL and 41.6 ng/mL | Plasma concentration, individual rats ([1]; single intravenous 2.5 mg/kg, 2 h, 2.5 mg/kg): 25.1 ng/mL and 6.66 ng/mL and 19.3 ng/mL and 15.2 ng/mL and 17.7 ng/mL | Plasma concentration, individual rats ([1]; single intravenous 2.5 mg/kg, 3 h, 2.5 mg/kg): 8.95 ng/mL and 2.49 ng/mL and 9.76 ng/mL and 5.45 ng/mL and 7.89 ng/mL | Plasma concentration, individual rats ([1]; single intravenous 2.5 mg/kg, 4 h, 2.5 mg/kg): BQL and 3.38 ng/mL and 2.60 ng/mL and 3.08 ng/mL | Plasma concentration, individual rats ([1]; single intravenous 2.5 mg/kg, 6 h): BQL | Plasma concentration, individual rats ([1]; single intravenous 2.5 mg/kg, 8 h): BQL | OE % (ICR mice; [6]): 47.01 ± 6.30 % | OT % (ICR mice; [6]): 46.70 ± 9.98 % | anxiolytic activity in elevated plus maze vs solvent control group (ICR mice; comparative study, single intragastric administration of 20 mg/kg): significant anxiolytic activity
